Assay results published in patent publication US20220016215A1, “GIP RECEPTOR AGONIST PEPTIDE COMPOUNDS AND USES THEREOF” (TAKEDA PHAARMACEUTICAL COMPANY LIMITED, priority 2018, published 2022).
Marks after values point to notes of the source that are not given here.

Experiments:
human GIPR = molecular target: T1, human GIPR (Homo sapiens, UniProt P48546); experiment: Agonist activity on human GIPR, CRE-luciferase reporter assay (increase in intracellular cAMP as indicator); assay type: cell-based; settings: GLP1R EC50 / GIPR EC50
T1 construct: expressed in transfected cells
T1 sequence (P48546 22-466): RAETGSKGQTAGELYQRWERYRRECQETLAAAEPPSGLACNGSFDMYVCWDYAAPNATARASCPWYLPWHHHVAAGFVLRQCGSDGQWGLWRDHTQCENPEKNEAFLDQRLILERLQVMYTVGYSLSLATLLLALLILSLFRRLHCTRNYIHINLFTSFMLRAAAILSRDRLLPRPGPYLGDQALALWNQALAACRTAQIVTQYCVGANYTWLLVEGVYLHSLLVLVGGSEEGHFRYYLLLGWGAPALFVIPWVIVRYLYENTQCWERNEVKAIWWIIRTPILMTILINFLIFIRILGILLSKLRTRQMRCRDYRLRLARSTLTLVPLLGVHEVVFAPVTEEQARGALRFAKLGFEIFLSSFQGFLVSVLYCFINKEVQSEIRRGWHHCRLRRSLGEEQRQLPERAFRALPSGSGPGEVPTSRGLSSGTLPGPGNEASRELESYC
From the text: The human GIPR gene having an identical sequence to Genebank Accession No. U39231 is cloned into a pMSRα-neo vector to prepare hGIPR/pMSRα-neo.
(2) Construction of Reporter Plasmid Expressing Cell
Luciferase reporter gene with a cAMP-responsive sequence located upstream is transferred to a CHO-K1 cell to construct a CRE-LUC/CHO-K1 cell.
(4) Transfer of Human GIPR Gene to CRE-LUC/CHO-K1 Cell and Obtaining of Expressing Cell
The plasmid hGIPR/pMSRα-neo obtained in (1) is transferred to the CRE-LUC/CHO-K1 cell obtained in (2) to obtain a transformant. Subsequently, the cell line inducing the luciferase expression, hGIPR/CRE-LUC/CHO-K1 cell, is selected from the obtained transformant by adding GIP.
25 μL each of the hGIPR/CRE-LUC/CHO-K1 cell is inoculated in a 384-well white plate (Corning) in such a way as to provide 5×10^3 cells/well and may be cultured in a HamF12 medium containing 10% fetal bovine serum, 100 U/mL penicillin, and 100 μg/mL streptomycin in a CO2 incubator at 37° C. overnight. 5 μL of a medium containing a test compound is added to the cells and incubated for 4 hours at the indicated concentration in a CO2 incubator at 37° C. Steady-Glo (Promega) is added in amounts of 30 μL and shaken under light shielding. Twenty minutes later, luciferase activity is measured using a plate reader Envision (PerkinElmer). The GIPR agonist activity is calculated with increase in intracellular cAMP concentration as the indicator when the luciferase activity in the presence of 10 nM of GIP was 100% and the luciferase activity in the case of adding DMSO instead of the test compound was 0%.

[1] = test system: morphine (0.6 mg/kg, s.c.)-induced emesis in ferrets; experiment: Morphine-induced acute emetic model in male ferrets; assay type: in vivo, ferret
Protocol: Example 6—In-Vivo Effect of GIP Receptor Agonist Peptides on Emesis in Morphine Induced Emesis Model in Live Male Ferrets
Effect of subcutaneously administered GIP receptor agonist peptide in morphine-induced acute emetic model.
To evaluate the antiemetic effect, the GIP receptor agonist peptides other than natural human GIP were subcutaneously administered into male ferrets 30 minutes before morphine administration. […]. Up to 60 minutes after morphine administration, the condition of the ferrets was monitored to record the frequencies and time points of abdominal contraction motions, vomiting behaviors, licking with the tongue, and fidgety behavior occurring
Effects of Subcutaneously Administered GIP Receptor Agonist Peptides in Morphine-Induced Acute Emetic Model
30 nmol/kg of Compounds 3 and 5 were dissolved with a vehicle (0.09 w/v % tween 80/10% DMSO/saline), respectively, to prepare test solutions. […] of the test solutions and the vehicle were subcutaneously administered to ferrets (4 in each group), respectively. At the time of each of 4 hours, after administration, 0.6 mg/kg of morphine was subcutaneously administered. […] See results in Tables 6, 7 and 8.
(§1) 10 nmol/kg of each compound dissolved with a vehicle (0.09 w/v % tween 80/10% DMSO/saline) respectively, to prepare test solutions. […] of the test solutions and the vehicle were subcutaneously administered to ferrets (4 in each group), respectively. At the time of each of 4 hours, or 120 hours after administration, 0.6 mg/kg of morphine was subcutaneously administered. Up to 360 minutes after morphine administration, the condition of the ferrets was monitored to record the frequencies and time points of abdominal contraction motions, vomiting behaviors, licking with the tongue, and fidgety behavior occurring.
as §1, with “30 nmol/kg” for “10 nmol/kg”, “80/10% DMSO/saline),respectively,” for “80/10% DMSO/saline) respectively,”

[2] = ferrets, morphine 0.6 mg/kg s.c. 0.5 h after drug, 106-[…] s.c. (30 nmol/kg)
[3] = ferrets, morphine 0.6 mg/kg s.c. 0.5 h after drug, 106-[…] s.c. (30 nmol/kg), non-responders counted as 30 min

Q: With CC[C@H](C)[C@H](NC(=O)[C@H](CO)NC(=O)[C@H](Cc1ccc(O)cc1)NC(=O)[C@H](CC(=O)O)NC(=O)[C@H](CO)NC(=O)[C@@H](NC(=O)[C@H](Cc1ccccc1)NC(=O)[C@@H](NC(=O)CNC(=O)[C@H](CCC(=O)O)NC(=O)[C@H](C)NC(=O)[C@H](Cc1ccc(O)cc1)NC(C)=O)[C@@H](C)O)[C@@H](C)CC)C(=O)N[C@@H](C)C(=O)N[C@@H](CCSC)C(=O)N[C@@H](CC(=O)O)C(=O)N[C@@H](CCCCN)C(=O)N[C@H](C(=O)N[C@@H](Cc1c[nH]cn1)C(=O)N[C@@H](CCC(N)=O)C(=O)N[C@@H](CCC(N)=O)C(=O)N[C@@H](CC(=O)O)C(=O)N[C@@H](Cc1ccccc1)C(=O)N[C@H](C(=O)N[C@@H](CC(N)=O)C(=O)N[C@@H](Cc1c[nH]c2ccccc12)C(=O)N[C@@H](CC(C)C)C(=O)N[C@@H](CC(C)C)C(=O)N[C@@H](C)C(=O)N[C@@H](CCC(N)=O)C(=O)N[C@@H](CCCCN)C(=O)NCC(=O)N[C@@H](CCCCN)C(=O)N[C@@H](CCCCN)C(=O)N[C@@H](CC(N)=O)C(=O)N[C@@H](CC(=O)O)C(=O)N[C@@H](Cc1c[nH]c2ccccc12)C(=O)N[C@@H](CCCCN)C(=O)N[C@@H](Cc1c[nH]cn1)C(=O)N[C@@H](CC(N)=O)C(=O)N[C@H](C(=O)N[C@H](C(=O)N[C@@H](CCC(N)=O)C(=O)O)[C@@H](C)CC)[C@@H](C)CC)C(C)C)[C@@H](C)CC [Compound 1] as the molecule, how does the “Selectivity Ratio (B/A)” value (human GIPR) read?
A: 30,200

Q: What about the “Emesis: Duration” value [1, 2] of the same molecule?
A: 0.0 ± 0.0 min

Q: What about the “Emesis: Frequency” value [1, 2] of the same molecule?
A: 0.0 ± 0.0

Q: What about the “Emesis: No. of animals (responder/used)” value [1, 2] of the same molecule?
A: 0/4 #

Q: And the “Fidget: Duration” value [1, 2]?
A: 0.0 ± 0.0 min

Q: What about the “Fidget: Frequency” value [1, 2] of the same molecule?
A: 0.0 ± 0.0

Q: What about the “Fidget: No. of animals (responder/used)” value [1, 2] of the same molecule?
A: 0/4

Q: And the “Licking: Duration” value [1, 2]?
A: 0.0 ± 0.0 min

Q: What about the “Licking: Frequency” value [1, 2] of the same molecule?
A: 0.0 ± 0.0

Q: And the “Licking: No. of animals (responder/used)” value [1, 2]?
A: 0/4 #

Q: And the “Retching: Duration” value [1, 2]?
A: 0.0 ± 0.0 min

Q: What about the “Retching: Frequency” value [1, 2] of the same molecule?
A: 0.0 ± 0.0

Q: And the “Retching: No. of animals (responder/used)” value [1, 2]?
A: 0/4 #

Q: And the “Vomiting: Duration” value [1, 2]?
A: 0.0 ± 0.0 min

Q: What about the “Vomiting: Frequency” value [1, 2] of the same molecule?
A: 0.0 ± 0.0

Q: And the “Vomiting: No. of animals (responder/used)” value [1, 2]?
A: 0/4

Q: What about the “Emesis: Latency” value [1, 3] of the same molecule?
A: 30.0 ± 0.0 min

Q: And the “Fidget: Latency” value [1, 3]?
A: 30.0 ± 0.0 min

Q: What about the “Licking: Latency” value [1, 3] of the same molecule?
A: 30.0 ± 0.0 min

Q: What about the “Retching: Latency” value [1, 3] of the same molecule?
A: 30.0 ± 0.0 min

Q: And the “Vomiting: Latency” value [1, 3]?
A: 30.0 ± 0.0 min

Q: What about the “Attenuation of morphine-induced emesis (in words)” value ([1]; male ferrets, 30 nmol/kg s.c. 30 minutes before morphine 0.6 mg/kg s.c.) of the same molecule?
A: completely attenuated

Q: What about the “Comment: Anti-Emetic Activity (inhibition) on morphine-induced emesis” value ([1]; male ferrets, summary of the morphine experiments) of the same molecule?
A: 100% inhibition
